Columns and labels:
[1] = system: 5-LO mRNA; test: Downregulation of 5-LO gene expression (5-LO mRNA by real-time RT-PCR) in acetylated-LDL-stimulated macrophage cell lines; assay type: cell-based, human and mouse; details: macrophage cell line (THP-1 or J774, not specified); for inhibition at 0.3 µM: 0.3 uM compound; for inhibition at 3 µM: 3.0 uM compound; for inhibition at 0.1 µM: 0.1 uM compound; for inhibition at 1 µM: 1.0 uM compound
Method: A panel of LXR or PPAR modulator compounds was tested to determine whether they could downregulate 5-LO gene expression. The compounds were individually tested to determine whether they could downregulate 5-LO gene expression in human and mouse macrophage cell lines.
Preparation of Acetylated LDL: LDL was dialyzed with 500 mL phosphate buffered saline (PBS) three times. 2.5 mL of dialyzed LDL was mixed with 2.5 mL of saturated sodium acetate with continuous stirring in an ice-water bath. Acetic anhydride was added in 7 times 7.5 μL over a period of 1 hour with continuous stirring. Then, the mixture was stirred for an additional 1 hour. The solution was dialyzed against 500 mL PBS containing 0.3 mM EDTA three times. The protein concentration is determined using Bio-Rad DC protein assay kit.
Cell Culture and Compound Treatment: Human THP-1 cells were maintained in RPMI 1640 medium containing 10% Fetal Bovine Serum (FBS), 25 mM Hepes buffer, […] Genamicin, 1 mM Sodium pyruvate, and 50 μM β-mercaptoethanol. THP-1 cells were differentiated with 75 ng/mL phorbal 12,13-dibutyrate (PDBu) three days prior to assay to induce differentiation of the cells into adherent macrophages. Cells were seeded in 12 well plates in 1 mL of complete media. Each well contained 400,000 cells. The cells were stimulated with RPMI 1640 medium (1% FBS) containing 100 μg/mL acetylated-LDL in presence of phorbol ester for 48 hours, including several wells without acetylated-LDL treatment as a control. The medium was then changed to RPMI 1640 medium without FBS, plus the test compounds with phorbol ester for 48 hours. Control cells were not incubated with test compounds. The cells were incubated at 37° C. in a humidified CO2 incubator. The cells were then ready for RNA extraction.
Murine J774 cells were maintained in DMEM (high glucose) containing 10% FBS, 100 units/mL penicillin, and 100 μg/mL streptomycin. Six hours prior to assay, J774 cells were seeded into 96-well plates in 150 μL complete media. Each well contains 75,000 cells. The cells were stimulated with DMEM-high glucose (1% FBS) containing 100 μg/mL acetylated-LDL for 24 to 48 hours, including several wells without acetylated-LDL treatment as a control. The media was then changed to DMEM-high glucose (without FBS) plus the test compounds for 24 to 48 hours. Compounds were dosed in DMSO vehicle and control cells were treated with vehicle alone. The cells were incubated at 37° C. in a humidified CO2 incubator. The cells were then ready for RNA isolation.
RNA analysis: Total RNA was isolated from the THP-1 cells by using a QIAGEN RNeasy Mini Kit. Real-time quantitative RT-PCR assays were performed using an Applied Biosystems 7900 sequence detector. Each amplification mixture (50 μL) contained 50-100 ng of total RNA, 200 nM forward primer, 200 nM reverse primer, and 200 nM dual-labeled fluorogenic probe. The RT-PCR reagent is from QIAGEN (QuantiTect Probe RT-PCR kit). The RT-PCR thermocycling parameters were 48° C. for 30 minutes, 95° C. for 10 minutes, and 40 cycles at 95° C. for 15 seconds and 55° C. for 1 minute. The samples, no-RT controls, and serially diluted RNA standards were analyzed in parallel. The 5-LO target gene was analyzed and normalized for human glyceraldehyde-3-phosphate dehydrogenase (GAPDH) expression using probe and primers from predeveloped assays for GAPDH (Applied Biosystems). Quantitative analysis was performed using the threshold procedure, and relative amounts were calculated from the standard curve.
Total RNA from the J774 cells was isolated by using the ABI 6100 RNA isolation system for 96-well plates (the THP-1 cells can also be cultured and tested in 96-well plates). Real-time quantitative RT-PCR assays were performed using an Applied Biosystems 7900 sequence detector. Each amplification mixture (50 μL) contained 50-100 ng of total RNA, 200 nM forward primer, 200 nM reverse primer, and 250 nM dual-labeled fluorogenic probe.

| SMILES | inhibition at 0.3 µM [1] [%] | inhibition at 3 µM [1] [%] | inhibition at 0.1 µM [1] [%] | inhibition at 1 µM [1] [%] | melting point [°C] |
| --- | --- | --- | --- | --- | --- |
| COc1cc(CNc2cccc(-c3c(Cc4ccccc4)cnc4c(C(F)(F)F)cccc34)c2)ccc1O [Compound I-17, 4-{[3-(3-Benzyl-8-trifluoromethyl-quinolin-4-yl)-phenylamino]-methyl}-2-methoxy-phenol] | 41 | 53 | – | – | – |
| COC(=O)COc1ccc(COc2cccc(-c3c(-c4ccccc4)cnc4c(C(F)(F)F)cccc34)c2)cc1 [Compound I-23, {4-[3-(3-Phenyl-8-trifluoromethyl-quinolin-4-yl)-phenoxymethyl]-phenoxy}-acetic acid methyl ester] | 76 | 92 | – | – | – |
| CC(C)(C(=O)O)c1ccc(COc2cccc(-c3c(-c4ccccc4)cnc4c(Cl)cccc34)c2)cc1 [Compound I-8, 2-{4-[3-(8-Chloro-3-phenyl-quinolin-4-yl)-phenoxymethyl]-phenyl}-2-methyl-propionic acid] | – | – | 89 | 93 | – |
| CCOc1cc(CNc2cccc(-c3c(Cc4ccccc4)cnc4c(C(F)(F)F)cccc34)c2)ccc1O [Compound I-19, 4-{[3-(3-Benzyl-8-trifluoromethyl-quinolin-4-yl)-phenylamino]-methyl}-2-ethoxy-phenol] | 22 | 60 | – | – | – |
| CCOC(=O)Cc1ccc(COc2cccc(-c3c(Cc4ccccc4)cnc4c(C(F)(F)F)cccc34)c2)cc1 [Compound I-15, {4-[3-(3-Benzyl-8-trifluoromethyl-quinolin-4-yl)-phenoxymethyl]-phenyl}-acetic acid ethyl ester] | 79 | 76 | – | – | – |
| O=C(O)Cc1ccc(C#Cc2cccc(-c3c(Cc4ccccc4)cnc4c(C(F)(F)F)cccc34)c2)cc1 [Compound I-9, {4-[3-(3-Benzyl-8-trifluoromethyl-quinolin-4-yl)-phenylethynyl]-phenyl}-acetic acid] | – | – | 22 | 45 | – |
| O=C(O)Cc1ccc(COc2cccc(-c3c(Cc4ccccc4)cnc4c(C(F)(F)F)cccc34)c2)cc1 [Compound I-2, {4-[3-(3-Benzyl-8-trifluoromethyl-quinolin-4-yl)-phenoxymethyl]-phenyl}-acetic acid] | – | – | 84 | 92 | – |
| Cc1cnc2c(C(F)(F)F)cccc2c1-c1cccc(OCc2ccc(CC(=O)O)cc2)c1 [Compound I-4, {4-[3-(3-Methyl-8-trifluoromethyl-quinolin-4-yl)-phenoxymethyl]-phenyl}-acetic acid] | – | – | 79 | 90 | – |
| CCOC(=O)Cc1cccc(CNc2cccc(-c3c(C(=O)c4ccccc4)cnc4c(C(F)(F)F)cccc34)c2)c1 [Compound I-13, (3-{[3-(3-Benzoyl-8-trifluoromethyl-quinolin-4-yl)-phenylamino]-methyl}-phenyl)-acetic acid ethyl ester] | 40 | 30 | – | – | – |
| CCOC(=O)Cc1ccc(COc2cccc(-c3c(-c4ccccc4)cnc4c(C(F)(F)F)cccc34)c2)cc1 [Compound I-14, {4-[3-(3-Phenyl-8-trifluoromethyl-quinolin-4-yl)-phenoxymethyl]-phenyl}-acetic acid ethyl ester] | 81 | 84 | – | – | – |
| O=C(O)Cc1ccc(COc2cccc(-c3c(-c4ccccc4)cnc4c(Cl)cccc34)c2)cc1 [Compound I-5, {4-[3-(8-Chloro-3-phenyl-quinolin-4-yl)-phenoxymethyl]-phenyl}-acetic acid] | – | – | 87 | 91 | – |
| NNC(=O)Cc1ccc(CNc2cccc(-c3c(Cc4ccccc4)cnc4c(C(F)(F)F)cccc34)c2)cc1 [Compound I-12, (4-{[3-(3-Benzyl-8-trifluoromethyl-quinolin-4-yl)-phenylamino]-methyl}-phenyl)-acetic acid hydrazide] | 71 | 76 | – | – | – |
| Cc1cnc2c(Cl)cccc2c1-c1cccc(OCc2ccc(CC(=O)O)cc2)c1 [Compound I-6, {4-[3-(8-Chloro-3-methyl-quinolin-4-yl)-phenoxymethyl]-phenyl}-acetic acid] | – | – | 62 | 81 | – |
| COC(=O)C(C)(C)c1ccc(CNc2cccc(-c3c(C)cnc4c(C(F)(F)F)cccc34)c2)cc1 [Compound I-22, 2-Methyl-2-(4-{[3-(3-methyl-8-trifluoromethyl-quinolin-4-yl)-phenylamino]-methyl}-phenyl)-propionic acid methyl ester] | 67 | 55 | – | – | – |
| COC(=O)C(C)c1ccc(CNc2cccc(-c3c(C)cnc4c(C(F)(F)F)cccc34)c2)cc1 (centres unmarked) [Compound I-21, 2-(4-{[3-(3-Methyl-8-trifluoromethyl-quinolin-4-yl)-phenylamino]-methyl}-phenyl)-propionic acid methyl ester] | 78 | 63 | – | – | – |
| CC(C)(C(=O)O)c1ccc(COc2cccc(-c3c(Cc4ccccc4)cnc4c(C(F)(F)F)cccc34)c2)cc1 [Compound I-7, 2-{4-[3-(3-Benzyl-8-trifluoromethyl-quinolin-4-yl)-phenoxymethyl]-phenyl}-2-methyl-propionic acid] | – | – | 87 | 88 | – |
| Oc1cccc(CNc2cccc(-c3c(Cc4ccccc4)cnc4c(C(F)(F)F)cccc34)c2)c1O [Compound I-18, 3-{[3-(3-Benzyl-8-trifluoromethyl-quinolin-4-yl)-phenylamino]-methyl}-benzene-1,2-diol] | 63 | 58 | – | – | – |
| O=C(O)Cc1ccc(CNc2cccc(-c3c(Cc4ccccc4)cnc4c(C(F)(F)F)cccc34)c2)cc1 [Compound I-1, (4-{[3-(3-Benzyl-8-trifluoromethyl-quinolin-4-yl)-phenylamino]-methyl}-phenyl)-acetic acid] | 82 | 83 | 91 | 88 | – |
| COC(=O)Cc1ccc(CNc2cccc(-c3c(C)cnc4c(C(F)(F)F)cccc34)c2)cc1 [Compound I-20, (4-{[3-(3-Methyl-8-trifluoromethyl-quinolin-4-yl)-phenylamino]-methyl}-phenyl)-acetic acid methyl ester] | 78 | 78 | – | – | – |
| Cc1cnc2c(C(F)(F)F)cccc2c1-c1cccc(OCc2ccc([C@@H](C)C(=O)O)cc2)c1 [Compound I-10, (2R)-2-{4-[3-(3-Methyl-8-trifluoromethyl-quinolin-4-yl)-phenoxymethyl]-phenyl}-propionic acid] | – | – | 86 | 83 | – |
| O=C(O)Cc1ccc(COc2cccc(-c3c(-c4ccccc4)cnc4c(C(F)(F)F)cccc34)c2)cc1 [Compound I-3, {4-[3-(3-Phenyl-8-trifluoromethyl-quinolin-4-yl)-phenoxymethyl]-phenyl}-acetic acid] | – | – | 88 | 89 | 122 |
| COC(=O)Cc1ccc(CNc2cccc(-c3c(C(=O)c4ccccc4)cnc4c(C(F)(F)F)cccc34)c2)cc1 [Compound I-11, (4-{[3-(3-Benzoyl-8-trifluoromethyl-quinolin-4-yl)-phenylamino]-methyl}-phenyl)-acetic acid methyl ester] | 74 | 71 | – | – | – |

Source: patent publication US20070093524A1, “5-Lipoxygenase modulators” (Wyeth, priority 2005, published 2007)
